# Test system: Influenza A virus
# Assay: Antiviral activity against rimantadine-resistant Influenza A virus (A/Puerto Rico/8/34(H1N1)) infected in MDCK cells
# Assay type: functional, A/Puerto Rico/8/1934(H1N1)
# Details: read-out: ED50 (the source's name)
row,SMILES,EC50
1,CCOP(=O)(CCCCn1cc(COCC/N=C2\C[C@H]3CC[C@]2(C)C3(C)C)nn1)OCC,299 µM
2,CNCc1cn(CC/N=C2\C[C@H]3CC[C@]2(C)C3(C)C)nn1,> 100 µM
3,CC1(C)[C@@H]2CC[C@@]1(C)/C(=N/CCOCc1cn(CCO)nn1)C2,50 µM
4,CC(N)[C@@H]1C[C@H]2CC[C@]1(C)C2 (stereo not given in full),181 µM
5,CC(C)(O)Cc1cn(CC/N=C2\C[C@H]3CC[C@]2(C)C3(C)C)nn1,32 µM
6,CC1(C)[C@@H]2CC[C@@]1(C)/C(=N/CCOCc1cn(-c3ccccc3)nn1)C2,63 µM
7,CCOC(=O)C(C)(Cc1cn(CC/N=C2\C[C@H]3CC[C@]2(C)C3(C)C)nn1)P(=O)(OCC)OCC (stereo not given in full),314 µM
8,C#CCOCC/N=C1\C[C@H]2CC[C@]1(C)C2(C)C,> 429 µM
9,CC1(C)[C@@H]2CC[C@@]1(C)/C(=N/CCn1cc([Si](C)(C)C)nn1)C2,> 31 µM
10,CC1(C)[C@@H]2CC[C@@]1(C)/C(=N\CCOCc1cn(CC/N=C3\C[C@H]4CC[C@]3(C)C4(C)C)nn1)C2,98 µM
11,CCCCc1cn(CC/N=C2\C[C@H]3CC[C@]2(C)C3(C)C)nn1,56 µM
12,CC1(C)[C@@H]2CC[C@@]1(C)/C(=N/CCn1cc(CCO)nn1)C2,55 µM
13,CC(C)(C)OC(=O)Cn1cc(COCC/N=C2\C[C@H]3CC[C@]2(C)C3(C)C)nn1,24 µM
14,COCCNCCc1cn(CC/N=C2\C[C@H]3CC[C@]2(C)C3(C)C)nn1,25 µM
15,CC1(C)[C@@H]2CC[C@@]1(C)/C(=N/CCn1cc(CCN3CCOCC3)nn1)C2,45 µM
16,CCOP(=O)(OCC)C(Cc1cn(CC/N=C2\C[C@H]3CC[C@]2(C)C3(C)C)nn1)P(=O)(OCC)OCC,> 58.4 µM
17,CC1(C)[C@@H]2CC[C@@]1(C)/C(=N/CCN=[N+]=[N-])C2,455 µM
18,CC1(C)[C@@H]2CC[C@@]1(C)/C(=N/CCn1cc(CO)nn1)C2,616 µM
19,NC12CC3CC(CC(C3)C1)C2 [AMANTADINE],60 µM
20,CC(N)C12CC3CC(CC(C3)C1)C2 (stereo not given) [RIMANTADINE],72 µM
